Test results reported in ChEMBL document CHEMBL4138123, “Design, synthesis and biological evaluation of novel pyrazolochalcones as potential modulators of PI3K/Akt/mTOR pathway and inducers of apoptosis in breast cancer cells” (Eur J Med Chem, 2017).

How the values were obtained:
Assay type in all cases: functional
UACC-257 = experiment: Cytotoxicity against human UACC257 cells assessed as cell growth at 0.01 uM after 48 hrs by sulforhodamine B assay relative to control; details: UACC-257, 48 h, read-out: Activity
OVCAR-4 = experiment: Cytotoxicity against human OVCAR4 cells assessed as growth inhibition after 48 hrs by sulforhodamine B assay; details: OVCAR-4, 48 h
K562 = experiment: Cytotoxicity against human K562 cells assessed as cell growth at 0.1 uM after 48 hrs by sulforhodamine B assay relative to control; details: K562, 48 h, read-out: Activity
MCF7 [1] = experiment: Cytotoxicity against human MCF7 cells assessed as cell growth at 1 uM after 48 hrs by sulforhodamine B assay relative to control; details: MCF7, 48 h, read-out: Activity
NCI-H23 [2] = experiment: Cytotoxicity against human NCI-H23 cells assessed as cell growth at 100 uM after 48 hrs by sulforhodamine B assay relative to control; details: NCI-H23, 48 h, read-out: Activity
HCT-15 = experiment: Cytotoxicity against human HCT15 cells assessed as cell growth at 1 uM after 48 hrs by sulforhodamine B assay relative to control; details: HCT-15, 48 h, read-out: Activity
A498 = experiment: Cytotoxicity against human A498 cells assessed as cell growth at 1 uM after 48 hrs by sulforhodamine B assay relative to control; details: A498, 48 h, read-out: Activity
HCC 2998 = experiment: Cytotoxicity against human HCC2998 cells assessed as cell growth at 10 uM after 48 hrs by sulforhodamine B assay relative to control; details: HCC 2998, 48 h, read-out: Activity
SK-OV-3 [3] = experiment: Cytotoxicity against human SKOV3 cells assessed as growth inhibition after 48 hrs by sulforhodamine B assay; details: SK-OV-3, 48 h
SF-268 = experiment: Cytotoxicity against human SF268 cells assessed as cell growth at 100 uM after 48 hrs by sulforhodamine B assay relative to control; details: SF-268, 48 h, read-out: Activity
M14 = experiment: Cytotoxicity against human M14 cells assessed as cell growth at 0.1 uM after 48 hrs by sulforhodamine B assay relative to control; details: M14, 48 h, read-out: Activity
Malme-3M = experiment: Cytotoxicity against human MALME-3M cells assessed as growth inhibition after 48 hrs by sulforhodamine B assay
IGROV-1 = experiment: Cytotoxicity against human IGROV1 cells assessed as cell growth at 0.01 uM after 48 hrs by sulforhodamine B assay relative to control; details: IGROV-1, 48 h, read-out: Activity
HL-60(TB) = experiment: Cytotoxicity against human HL-60(TB) cells assessed as cell growth at 0.1 uM after 48 hrs by sulforhodamine B assay relative to control; details: HL-60, 48 h, read-out: Activity
NCI-H522 = experiment: Cytotoxicity against human NCI-H522 cells assessed as cell growth at 0.1 uM after 48 hrs by sulforhodamine B assay relative to control; details: NCI-H522, 48 h, read-out: Activity
SF-539 = experiment: Cytotoxicity against human SF539 cells assessed as cell growth at 100 uM after 48 hrs by sulforhodamine B assay relative to control; details: SF-539, 48 h, read-out: Activity
NCI-H322M = experiment: Cytotoxicity against human NCI-H322M cells assessed as cell growth at 0.01 uM after 48 hrs by sulforhodamine B assay relative to control; details: read-out: Activity
SK-OV-3 [4] = experiment: Cytotoxicity against human SKOV3 cells assessed as cell growth at 100 uM after 48 hrs by sulforhodamine B assay relative to control; details: SK-OV-3, 48 h, read-out: Activity
A549 = experiment: Cytotoxicity against human A549/ATCC cells assessed as cell growth at 0.1 uM after 48 hrs by sulforhodamine B assay relative to control; details: A549, 48 h, read-out: Activity
MOLT-4 = experiment: Cytotoxicity against human MOLT4 cells assessed as cell growth at 1 uM after 48 hrs by sulforhodamine B assay relative to control; details: MOLT-4, 48 h, read-out: Activity
RXF 393 = experiment: Cytotoxicity against human RXF393 cells assessed as cell growth at 1 uM after 48 hrs by sulforhodamine B assay relative to control; details: RXF 393, 48 h, read-out: Activity
UO-31 = experiment: Cytotoxicity against human UO31 cells assessed as cell growth at 100 uM after 48 hrs by sulforhodamine B assay relative to control; details: UO-31, 48 h, read-out: Activity
TK-10 = experiment: Cytotoxicity against human TK10 cells assessed as cell growth at 10 uM after 48 hrs by sulforhodamine B assay relative to control; details: TK-10, 48 h, read-out: Activity
MDA-MB-231 [5] = experiment: Cytotoxicity against human MDA-MB-231 cells assessed as cell growth at 1 uM after 48 hrs by sulforhodamine B assay relative to control; details: MDA-MB-231, 48 h, read-out: Activity
MCF7 [6] = experiment: Cytotoxicity against human MCF7 cells assessed as cell growth at 0.1 uM after 48 hrs by sulforhodamine B assay relative to control; details: MCF7, 48 h, read-out: Activity
NCI-H23 [7] = experiment: Cytotoxicity against human NCI-H23 cells assessed as cell growth at 10 uM after 48 hrs by sulforhodamine B assay relative to control; details: NCI-H23, 48 h, read-out: Activity
UACC-62 = experiment: Cytotoxicity against human UACC62 cells assessed as cell growth at 10 uM after 48 hrs by sulforhodamine B assay relative to control; details: UACC-62, 48 h, read-out: Activity
OVCAR-3 = experiment: Cytotoxicity against human OVCAR3 cells assessed as cell growth at 1 uM after 48 hrs by sulforhodamine B assay relative to control; details: OVCAR-3, 48 h, read-out: Activity
MCF7 [8] = experiment: Cytotoxicity against human MCF7 cells assessed as cell growth at 10 uM after 48 hrs by sulforhodamine B assay relative to control; details: MCF7, 48 h, read-out: Activity
Hs-578T = experiment: Cytotoxicity against human Hs 578T cells assessed as cell growth at 0.1 uM after 48 hrs by sulforhodamine B assay relative to control; details: read-out: Activity
PC-3 = experiment: Cytotoxicity against human PC3 cells assessed as cell growth at 100 uM after 48 hrs by sulforhodamine B assay relative to control; details: PC-3, 48 h, read-out: Activity
SNB-19 = experiment: Cytotoxicity against human SNB19 cells assessed as cell growth at 1 uM after 48 hrs by sulforhodamine B assay relative to control; details: SNB-19, 48 h, read-out: Activity
786-0 [9] = experiment: Cytotoxicity against human 786-0 cells assessed as cell growth at 10 uM after 48 hrs by sulforhodamine B assay relative to control; details: 786-0, 48 h, read-out: Activity
MDA-MB-231 [10] = experiment: Cytotoxicity against human MDA-MB-231 cells assessed as growth inhibition after 48 hrs by sulforhodamine B assay; details: MDA-MB-231, 48 h
786-0 [11] = experiment: Cytotoxicity against human 786-0 cells assessed as growth inhibition after 48 hrs by sulforhodamine B assay; details: 786-0, 48 h

## COc1cc(-c2cc(/C=C/C(=O)c3ccc(N)cc3)[nH]n2)cc(OC)c1OC
UACC-257
  growth at 0.01 µM: 94%
OVCAR-4
  GI50: 1400 nM
  LC50: 23.7 µM
  TGI: 5.44 µM
K562
  growth at 0.1 µM: 94%
MCF7 [1]
  growth at 1 µM: 66%
NCI-H23 [2]
  growth at 100 µM: -55%
HCT-15
  growth at 1 µM: 60%
A498
  growth at 1 µM: 76%
HCC 2998
  growth at 10 µM: -86%
SK-OV-3 [3]
  GI50: 2.99 µM
  LC50: 28.9 µM
  TGI: 8.32 µM
SF-268
  growth at 100 µM: -80%
M14
  growth at 0.1 µM: 101%
Malme-3M
  GI50: 2050 nM
  LC50: 14.4 µM
  TGI: 4.71 µM
IGROV-1
  growth at 0.01 µM: 107%
HL-60(TB)
  growth at 0.1 µM: 99%
NCI-H522
  growth at 0.1 µM: 92%
SF-539
  growth at 100 µM: -99%
NCI-H322M
  growth at 0.01 µM: 95%
SK-OV-3 [4]
  growth at 100 µM: -98%
A549
  growth at 0.1 µM: 94%
MOLT-4
  growth at 1 µM: 72%
RXF 393
  growth at 1 µM: 67%
UO-31
  growth at 100 µM: -93%
TK-10
  growth at 10 µM: 26%
MDA-MB-231 [5]
  growth at 1 µM: 70%
MCF7 [6]
  growth at 0.1 µM: 91%
NCI-H23 [7]
  growth at 10 µM: -19%
UACC-62
  growth at 10 µM: -69%
OVCAR-3
  growth at 1 µM: 79%
MCF7 [8]
  growth at 10 µM: -24%
Hs-578T
  growth at 0.1 µM: 88%
PC-3
  growth at 100 µM: -39%
SNB-19
  growth at 1 µM: 79%
786-0 [9]
  growth at 10 µM: -19%
MDA-MB-231 [10]
  GI50: 2060 nM
  LC50: 47.5 µM
  TGI: 12.2 µM
786-0 [11]
  GI50: 2040 nM
  LC50: 27.6 µM
  TGI: 6.49 µM

## COc1ccc(C(=O)/C=C/c2cc(-c3ccc4c(c3)OCO4)n[nH]2)cc1OC
UACC-257
  growth at 0.01 µM: 91%
OVCAR-4
  LC50: > 100 µM
  TGI: 40.3 µM
K562
  growth at 0.1 µM: 96%
MCF7 [1]
  growth at 1 µM: 88%
NCI-H23 [2]
  growth at 100 µM: -67%
HCT-15
  growth at 1 µM: 86%
A498
  growth at 1 µM: 72%
HCC 2998
  growth at 10 µM: 27%
SK-OV-3 [3]
  LC50: > 100 µM
  TGI: 26.4 µM
SF-268
  growth at 100 µM: -74%
M14
  growth at 0.1 µM: 98%
Malme-3M
  LC50: 61.8 µM
  TGI: 22.8 µM
IGROV-1
  growth at 0.01 µM: 100%
HL-60(TB)
  growth at 0.1 µM: 96%
NCI-H522
  growth at 0.1 µM: 87%
SF-539
  growth at 100 µM: -83%
NCI-H322M
  growth at 0.01 µM: 93%
SK-OV-3 [4]
  growth at 100 µM: -23%
A549
  growth at 0.1 µM: 96%
MOLT-4
  growth at 1 µM: 96%
RXF 393
  growth at 1 µM: 105%
UO-31
  growth at 100 µM: -93%
TK-10
  growth at 10 µM: -5%
MDA-MB-231 [5]
  growth at 1 µM: 90%
MCF7 [6]
  growth at 0.1 µM: 94%
NCI-H23 [7]
  growth at 10 µM: 28%
UACC-62
  growth at 10 µM: 19%
OVCAR-3
  growth at 1 µM: 92%
MCF7 [8]
  growth at 10 µM: 14%
Hs-578T
  growth at 0.1 µM: 92%
PC-3
  growth at 100 µM: -45%
SNB-19
  growth at 1 µM: 79%
786-0 [9]
  growth at 10 µM: 5%
MDA-MB-231 [10]
  GI50: 2440 nM
  LC50: 31.7 µM
  TGI: 7.39 µM
786-0 [11]
  LC50: 42.3 µM
  TGI: 11.4 µM

## COc1ccc(C(=O)/C=C/c2cc(-c3ccc(OC)c(OC)c3)n[nH]2)cc1OC
UACC-257
  growth at 0.01 µM: 93%
OVCAR-4
  GI50: 1920 nM
  TGI: 8.15 µM
K562
  growth at 0.1 µM: 97%
MCF7 [1]
  growth at 1 µM: 49%
NCI-H23 [2]
  growth at 100 µM: -21%
HCT-15
  growth at 1 µM: 53%
A498
  growth at 1 µM: 63%
HCC 2998
  growth at 10 µM: -94%
SK-OV-3 [3]
  GI50: 3.13 µM
  TGI: 33.3 µM
SF-268
  growth at 100 µM: -25%
M14
  growth at 0.1 µM: 94%
Malme-3M
  GI50: 2590 nM
  TGI: 6.21 µM
IGROV-1
  growth at 0.01 µM: 104%
HL-60(TB)
  growth at 0.1 µM: 101%
NCI-H522
  growth at 0.1 µM: 94%
SF-539
  growth at 100 µM: -83%
NCI-H322M
  growth at 0.01 µM: 104%
SK-OV-3 [4]
  growth at 100 µM: -8%
A549
  growth at 0.1 µM: 93%
MOLT-4
  growth at 1 µM: 73%
RXF 393
  growth at 1 µM: 76%
UO-31
  growth at 100 µM: -68%
TK-10
  growth at 10 µM: 25%
MDA-MB-231 [5]
  growth at 1 µM: 76%
MCF7 [6]
  growth at 0.1 µM: 94%
NCI-H23 [7]
  growth at 10 µM: -30%
UACC-62
  growth at 10 µM: -57%
OVCAR-3
  growth at 1 µM: 88%
MCF7 [8]
  growth at 10 µM: -5%
Hs-578T
  growth at 0.1 µM: 91%
PC-3
  growth at 100 µM: -4%
SNB-19
  growth at 1 µM: 78%
786-0 [9]
  growth at 10 µM: -32%
MDA-MB-231 [10]
  GI50: 1880 nM
  TGI: 6.38 µM
786-0 [11]
  GI50: 1810 nM
  TGI: 5.14 µM
